These results are taken from patent US7385051B2, “Fluorescent N2,N3-etheno-purine (2′-deoxy) riboside derivatives and uses thereof” (Bar-llan University, priority 2005, dated 2008).

Entries after “also recorded” stand apart in the source; their conditions may differ.

One assay has as its target T1, NTPDase1 (Homo sapiens, UniProt P49961).
T1 sequence (P49961 1-510): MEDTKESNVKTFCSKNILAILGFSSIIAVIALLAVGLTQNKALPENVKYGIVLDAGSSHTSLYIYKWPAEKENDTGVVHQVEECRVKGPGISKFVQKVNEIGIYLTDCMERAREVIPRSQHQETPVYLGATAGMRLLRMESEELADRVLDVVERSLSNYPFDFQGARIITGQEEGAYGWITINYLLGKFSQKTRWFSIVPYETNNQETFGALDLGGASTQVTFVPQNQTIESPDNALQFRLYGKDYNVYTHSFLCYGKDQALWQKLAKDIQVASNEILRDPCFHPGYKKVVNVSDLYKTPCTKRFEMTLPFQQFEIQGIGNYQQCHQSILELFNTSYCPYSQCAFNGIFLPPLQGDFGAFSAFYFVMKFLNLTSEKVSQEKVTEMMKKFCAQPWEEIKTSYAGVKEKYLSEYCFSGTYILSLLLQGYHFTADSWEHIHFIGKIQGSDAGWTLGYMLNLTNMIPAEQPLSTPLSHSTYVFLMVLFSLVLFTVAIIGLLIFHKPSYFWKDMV
Description: Hydrolysis as substrates of NTPDase1. To be noted: substrate at 100 μM. Type of assay: biochemical. As for the experimental part:
(§1) For evaluation of the probes as substrates/inhibitors of NTPDase1 and 2, the analogues 30a-f were evaluated as either substrates or inhibitors of NTPDase1 and 2. We tested ATP and analogues 30 as substrates of NTPDases 1 and 2 at 100 μM for NTPDase1 and 200 μM for NTPDase2. All analogues were hydrolysed by NTPDases 1 and 2. NTPDase2 hydrolysed analogues 30 better than NTPDase1. When compared to ATP, the rate of hydrolysis of all analogues was lower for NTPDase1 and mostly similar for NTPDase2 (FIGS. 7A-7B).

Assay [1] deals with T2, NTPDase2 (Homo sapiens, UniProt Q9Y5L3).
T2 sequence (Q9Y5L3 1-495): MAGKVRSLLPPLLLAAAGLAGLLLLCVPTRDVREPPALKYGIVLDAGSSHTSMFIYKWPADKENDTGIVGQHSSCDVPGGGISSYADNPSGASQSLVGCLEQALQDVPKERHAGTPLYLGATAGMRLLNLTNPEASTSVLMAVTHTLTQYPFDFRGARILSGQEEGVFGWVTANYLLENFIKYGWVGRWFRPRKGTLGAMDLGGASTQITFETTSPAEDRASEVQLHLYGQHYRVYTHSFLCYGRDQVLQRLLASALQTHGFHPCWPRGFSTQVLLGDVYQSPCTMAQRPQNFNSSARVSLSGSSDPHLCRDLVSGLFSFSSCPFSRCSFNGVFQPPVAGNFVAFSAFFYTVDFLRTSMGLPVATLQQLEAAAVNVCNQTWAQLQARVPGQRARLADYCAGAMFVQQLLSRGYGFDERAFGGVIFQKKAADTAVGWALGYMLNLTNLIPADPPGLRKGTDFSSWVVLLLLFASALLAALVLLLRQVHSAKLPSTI
Kind of assay: Hydrolysis as substrates of NTPDase2. The format is biochemical. To be noted: substrate at 200 μM. The procedure:
as §1

For another assay, the target named is T3, rat brain P2Y1-receptor (Rattus norvegicus, UniProt P49651).
T3 construct: expressed in transfected cells
T3 sequence (P49651 whole entry): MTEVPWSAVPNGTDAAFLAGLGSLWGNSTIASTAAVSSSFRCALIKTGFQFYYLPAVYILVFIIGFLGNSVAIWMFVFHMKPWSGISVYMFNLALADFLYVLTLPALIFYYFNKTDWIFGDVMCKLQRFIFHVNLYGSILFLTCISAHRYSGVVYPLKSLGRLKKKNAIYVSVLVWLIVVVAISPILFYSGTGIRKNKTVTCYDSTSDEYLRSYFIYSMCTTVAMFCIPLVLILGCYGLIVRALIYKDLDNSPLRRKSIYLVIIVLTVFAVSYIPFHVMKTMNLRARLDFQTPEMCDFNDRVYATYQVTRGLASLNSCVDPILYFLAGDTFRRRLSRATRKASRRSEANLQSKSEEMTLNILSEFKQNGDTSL
Description: Agonist-induced Ca2+ release in HEK 293 cells stably transfected with P2Y1-receptor. Type of assay: cell-based. The note with it: HEK 293 cells with rat brain P2Y1-receptor. The text has this:
To examine the efficacy of analogues 30a,d in a functional assay, we tested them by the agonist-induced Ca^2+ release in HEK 293 cells stably transfected with rat brain P2Y1-receptor (FIG. 6) (Voehringer et al., 2000). […] However, a benzyl substitution at N^6 of 30a, as in analogue 30d, reduced the ligand's potency. […] EC50 value in the range of 10^−6 M.

Assay [2] has as its target T2, NTPDase2. Description: Fluorescence spectra of the nucleotide with and without NTPDase2. The format is biochemical. Details: made in house; host or cells: COS-7 cells (transfected; lysate used as enzyme). To be noted: 200 μM nucleotide, excitation at 290 nm. From the text: Next, we tested whether N^2,N3-ε-A is suitable for probing ectonucleotidases. […] For this purpose, we measured the fluorescence spectra of 30a and its monophosphate homologue with and without human NTPDase2. We observed that the fluorescence intensity of the nucleotide decreased by ca. ⅓ upon the addition of the enzyme (not shown). This observation is consistent with the lower dielectric constant (polarity) of the protein as compared to that of the aqueous solution. Fluorescence intensity of the bound nucleotide, although lowered, still enables the application of this nucleotide as a fluorescent probe.
For the fluorescence studies of 30a-NTPDase2 complex, emission spectra of 30a and its monophosphate homologue, 30a′, were measured in the presence of human NTPDase2 using an Aminco-Bowman series 2 Luminescence Spectrometer. Measurement conditions included: 740-780 V sensitivity, 37° C. and excitation at 290 nm. The concentration of the samples was of the order of 2×10^−4 M in the NTPDase incubation mixture. Measurements of the emission spectra were performed in 1.5 ml of 200 μM 30a and 30a′, without enzyme. Enzyme was added (3.6 μg of transfected COS-7 cells lysate), then, emission spectra were measured at 5 min intervals. […]

For the compound `O=P(O)(O)OP(=O)(O)OP(=O)(O)OCC1OC(n2cnc3c(N(Cc4ccccc4)Cc4ccccc4)nc4nccn4c32)C(O)C1O` (stereo not shown) [Compound 30e, N^6,N^6-Dibenzyl-N^2,N3-ethenoadenosine-5′-triphosphate], at NTPDase1, the “Rate of hydrolysis by NTPDase1 compared to ATP” value is recorded as “less efficiently than ATP”. Further, the “Rate of hydrolysis by NTPDase2 compared to ATP” value at NTPDase2 [1] is “less efficiently than ATP; also recorded: significant reduction of the affinities”.
`Nc1nc2nccn2c2c1ncn2C1OC(COP(=O)(O)OP(=O)(O)OP(=O)(O)O)C(O)C1O` (stereo not shown) [Compound 30a, N^2,N3-ethenoadenosine-5′-triphosphate]: on rat brain P2Y1-receptor (Ca^2+ release), the EC50 (usually the concentration that produces a half-maximal response) is about 100 nM. Besides, the “Potency at P2Y1-R compared to ATP / 30a” value at rat brain P2Y1-receptor was “almost equipotent with ATP; also recorded: almost equipotent to ATP”. Moreover, on NTPDase2 [1], the “Rate of hydrolysis by NTPDase2 compared to ATP” value was “almost equipotent to ATP”. The “Decrease of fluorescence intensity upon the addition of the enzyme” value at NTPDase2 [2] (human NTPDase2 (3.6 μg COS-7 lysate), 37° C.) was “ca. ⅓; also recorded: lower fluorescence intensity”. At NTPDase2 [2] (human NTPDase2, 37° C.), the “Shift of maximum emission upon the addition of the enzyme” value is recorded as “does not shift”.
